As usually defined, the melting point is the temperature of the solid-liquid transition.

Eleven compounds from patent publication US6946483B2, “Aminoalkenylbenzoyl-benzofuran or benzothiophene, method for preparing same and compositions containing same” (Sanofi-Aventis, priority 2000, dated 2005) can be followed below.

Counter-ions that a name gives are not always drawn.

`CCCCN(C/C=C/c1ccc(C(=O)c2c(C)oc3ccc(C(=O)OC(C)C)cc23)cc1)CCCC` (as salt: hydrochloride) [Example 50]: the melting point lay within 189 to 191 °C. To `CCCCc1oc2ccc(C(=O)OC(C)C)cc2c1C(=O)c1ccc(/C=C/CN(CCCC)CCCC)cc1` (as salt: oxalate) [Example 39] belongs 112 °C; to `CCCCN(C/C=C/c1ccc(C(=O)c2c(C3CCCCC3)oc3ccc(C(=O)OC(C)C)cc23)cc1)CCCC` (as salt: hydrochloride) [Example 43], 171 to 173 °C; to `CCCCc1oc2cc(C)c(C(=O)OC(C)C)cc2c1C(=O)c1ccc(/C=C\CN(CCCC)CCCC)cc1.Cl`, 129 °C. Take `CCCCc1oc2ccc(C(=O)OC(C)C)cc2c1C(=O)c1cc(C)c(/C=C/CN(CCCC)CCCC)c(C)c1` (as salt: oxalate) [Example 44]: the melting point is 110 to 115 °C. To `CCCCc1oc2ccc(C(=O)OC(C)C)cc2c1C(=O)c1cc(Cl)c(/C=C/CN(CCCC)CCCC)c(Cl)c1` (as salt: oxalate) [Example 51] belongs 91 to 93 °C; to `CCCCc1oc2c(C(=O)OC(C)C)cccc2c1C(=O)c1ccc(/C=C/CN(CCCC)CCCC)cc1` (as salt: oxalate) [Example 52], 120 °C. In turn, `CCCCN(C/C=C/c1ccc(C(=O)c2c(CC(C)C)oc3ccc(C(=O)OC(C)C)cc23)cc1)CCCC` (as salt: hydrochloride) [Example 40] returned a melting point of 147 to 150 °C.

In turn, `CCCCNCC#Cc1ccc(C(=O)c2c(CCCC)oc3ccc(C(=O)OC(C)C)cc23)cc1` (as salt: hydrochloride) [Example 36] had a melting point of 166 to 167 °C. Regarding `CCCCc1oc2cc(C(=O)OC(C)C)ccc2c1C(=O)c1ccc(/C=C/CN(CCCC)CCCC)cc1` (as salt: hydrochloride) [Example 38], the melting point lay in the range of 110 to 114 °C. To `CCCCc1oc2ccc(C(=O)OC)cc2c1C(=O)c1ccc(C#CCN2CCCCC2)cc1` (as salt: hydrochloride) [Example 34] belongs 153 to 154 °C.
